Legend:
Assay in all cases: Kinase selectivity, DiscoverX scanMAX Kinase assay panel (% control)
Type in all cases: binding
[1] = biological target: T1, kinases of the scanMAX Kinase assay panel (Homo sapiens, UniProt P30530); conditions: AXL; 1 uM
T1 construct: purchased DiscoverX Co. (contract measurement) scanMAX Kinase assay panel
T1 sequence (P30530 26-894): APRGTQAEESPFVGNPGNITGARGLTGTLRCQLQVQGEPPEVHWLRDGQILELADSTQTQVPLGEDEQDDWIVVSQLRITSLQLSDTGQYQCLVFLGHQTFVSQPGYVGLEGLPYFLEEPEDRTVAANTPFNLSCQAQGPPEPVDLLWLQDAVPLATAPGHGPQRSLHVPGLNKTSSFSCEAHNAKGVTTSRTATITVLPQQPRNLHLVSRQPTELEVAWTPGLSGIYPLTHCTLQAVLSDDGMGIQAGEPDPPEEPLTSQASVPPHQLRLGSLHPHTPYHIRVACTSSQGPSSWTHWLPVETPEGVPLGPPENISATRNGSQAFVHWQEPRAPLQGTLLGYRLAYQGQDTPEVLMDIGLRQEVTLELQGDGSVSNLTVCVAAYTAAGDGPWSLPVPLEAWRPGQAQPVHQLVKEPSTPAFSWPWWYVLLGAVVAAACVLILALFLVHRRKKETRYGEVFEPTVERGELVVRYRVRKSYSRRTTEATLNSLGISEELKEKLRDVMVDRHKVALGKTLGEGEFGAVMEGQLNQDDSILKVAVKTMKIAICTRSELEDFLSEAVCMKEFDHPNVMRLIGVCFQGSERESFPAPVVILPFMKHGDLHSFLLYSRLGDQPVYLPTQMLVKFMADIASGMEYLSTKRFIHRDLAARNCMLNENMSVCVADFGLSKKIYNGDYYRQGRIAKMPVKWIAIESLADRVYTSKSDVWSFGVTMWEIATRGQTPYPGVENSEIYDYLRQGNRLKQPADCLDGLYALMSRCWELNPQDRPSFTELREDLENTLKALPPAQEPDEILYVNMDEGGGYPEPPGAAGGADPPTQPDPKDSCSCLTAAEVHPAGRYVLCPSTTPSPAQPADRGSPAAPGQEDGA
In short: (§1)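 Read-out is % control, normalised so a positive-control compound sits at 0% and DMSO at 100%: (test − positive)/(negative − positive)×100. Each kinase received the compound at 1 uM in DMSO. A value below 35% counts as activity.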

[2] = biological target: T2, kinases of the scanMAX Kinase assay panel (Homo sapiens, UniProt Q12851); conditions: MAP4K2; 1 uM
T2 construct: purchased DiscoverX Co. (contract measurement) scanMAX Kinase assay panel
T2 sequence (Q12851 1-820): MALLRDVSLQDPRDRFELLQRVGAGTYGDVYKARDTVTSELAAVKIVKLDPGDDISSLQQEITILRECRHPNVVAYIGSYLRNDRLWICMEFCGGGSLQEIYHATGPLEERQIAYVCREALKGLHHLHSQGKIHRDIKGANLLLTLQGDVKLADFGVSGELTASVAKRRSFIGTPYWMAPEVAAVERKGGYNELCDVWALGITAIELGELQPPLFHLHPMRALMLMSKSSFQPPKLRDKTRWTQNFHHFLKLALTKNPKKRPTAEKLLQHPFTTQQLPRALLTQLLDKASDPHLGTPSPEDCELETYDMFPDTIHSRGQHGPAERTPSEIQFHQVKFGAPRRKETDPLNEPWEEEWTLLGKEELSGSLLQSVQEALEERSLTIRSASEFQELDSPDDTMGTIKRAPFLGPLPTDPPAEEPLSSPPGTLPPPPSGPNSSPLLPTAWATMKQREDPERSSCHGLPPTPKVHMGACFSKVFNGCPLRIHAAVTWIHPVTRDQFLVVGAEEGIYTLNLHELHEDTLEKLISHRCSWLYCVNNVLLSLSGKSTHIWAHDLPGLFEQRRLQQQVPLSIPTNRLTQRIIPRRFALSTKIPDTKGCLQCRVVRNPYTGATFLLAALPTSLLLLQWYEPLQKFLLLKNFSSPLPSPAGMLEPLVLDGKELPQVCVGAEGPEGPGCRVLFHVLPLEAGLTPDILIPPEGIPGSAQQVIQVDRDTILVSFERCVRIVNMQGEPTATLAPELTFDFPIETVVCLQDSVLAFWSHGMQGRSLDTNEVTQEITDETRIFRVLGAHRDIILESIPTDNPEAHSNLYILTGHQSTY
In short: as §1

[3] = biological target: T3, kinases of the scanMAX Kinase assay panel (Homo sapiens, UniProt O75116); conditions: kinase ROCK2; 1 uM in DMSO
T3 construct: purchased DiscoverX Co. (contract measurement) scanMAX Kinase assay panel
In short: as §1

T3 sequence (O75116 whole entry): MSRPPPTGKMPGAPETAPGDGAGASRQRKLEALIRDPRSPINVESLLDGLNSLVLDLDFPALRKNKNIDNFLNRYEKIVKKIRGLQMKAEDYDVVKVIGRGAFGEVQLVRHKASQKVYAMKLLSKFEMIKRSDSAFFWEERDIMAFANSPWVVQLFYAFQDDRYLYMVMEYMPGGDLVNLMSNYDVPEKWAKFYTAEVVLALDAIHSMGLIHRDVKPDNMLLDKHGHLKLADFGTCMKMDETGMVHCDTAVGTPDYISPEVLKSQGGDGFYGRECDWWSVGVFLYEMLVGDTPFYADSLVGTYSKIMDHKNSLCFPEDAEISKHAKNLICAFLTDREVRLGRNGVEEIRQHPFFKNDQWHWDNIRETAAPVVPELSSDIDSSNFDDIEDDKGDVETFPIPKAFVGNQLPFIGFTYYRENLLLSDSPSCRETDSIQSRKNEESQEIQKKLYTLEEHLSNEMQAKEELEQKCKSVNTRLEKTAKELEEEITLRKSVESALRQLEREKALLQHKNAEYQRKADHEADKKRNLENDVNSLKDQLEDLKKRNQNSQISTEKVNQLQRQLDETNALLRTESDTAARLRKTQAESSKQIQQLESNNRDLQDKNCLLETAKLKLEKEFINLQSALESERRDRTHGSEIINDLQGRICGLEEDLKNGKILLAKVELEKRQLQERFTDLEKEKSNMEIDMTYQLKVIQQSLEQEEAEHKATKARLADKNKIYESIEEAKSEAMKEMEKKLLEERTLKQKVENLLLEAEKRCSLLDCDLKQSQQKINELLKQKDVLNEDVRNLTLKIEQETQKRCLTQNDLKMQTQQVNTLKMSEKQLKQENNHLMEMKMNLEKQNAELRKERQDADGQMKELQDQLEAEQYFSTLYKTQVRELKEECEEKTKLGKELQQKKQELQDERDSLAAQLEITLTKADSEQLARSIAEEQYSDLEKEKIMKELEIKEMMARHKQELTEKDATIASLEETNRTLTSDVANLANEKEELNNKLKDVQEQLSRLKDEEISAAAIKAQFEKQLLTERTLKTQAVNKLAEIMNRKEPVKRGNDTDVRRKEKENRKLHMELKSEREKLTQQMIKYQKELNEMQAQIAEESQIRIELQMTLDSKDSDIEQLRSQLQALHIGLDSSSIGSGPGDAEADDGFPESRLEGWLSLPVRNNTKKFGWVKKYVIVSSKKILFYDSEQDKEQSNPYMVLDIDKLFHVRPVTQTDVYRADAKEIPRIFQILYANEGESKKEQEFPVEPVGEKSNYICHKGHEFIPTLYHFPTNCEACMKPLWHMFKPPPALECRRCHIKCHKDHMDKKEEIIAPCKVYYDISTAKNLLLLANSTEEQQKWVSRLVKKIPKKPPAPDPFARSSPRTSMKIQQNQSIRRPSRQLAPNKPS

SMILES | remaining binding at 1 µM [1] | remaining binding at 1 µM [2] | remaining binding at 1 µM [3]
CNc1nc(Nc2ccc(C(=O)N3CCOCC3)cc2OC)nc2[nH]cc(C#N)c12 [Example 1, 2-((2-methoxy-4-(morpholine-4-carbonyl)phenyl)amino)-4-(methylamino)-7H-pyrrolo[2,3-d]pyrimidine-5-carbonitrile] | 90% | 75% | 56%
CC1(Nc2nc(Nc3cnn([C@H]4CCN(C5COC5)C[C@@H]4F)c3Cl)nc3[nH]cc(C#N)c23)CC1 [Example 52, 2-((5-chloro-1-((3S,4S)-3-fluoro-1-(oxetane-3-yl)piperidine-4-yl)-1H-pyrazole-4-yl)amino)((1-methylcyclopropyl)amino)-7H-pyrrolo[2,3-d]pyrimidine-5-carbonitrile] | 0% | 1.2% | 23%
CCNc1nc(Nc2ccc(C(=O)N3CCC(N4CCOCC4)CC3)cc2OC)nc2[nH]cc(C(F)(F)F)c12 [Example 104, (4-((4-(ethylamino)-5-(trifluoromethyl)-7H-pyrrolo[2,3-d]pyrimidine-2-yl)amino)-3-methoxyphenyl)(4-morpholinopiperidine-1-yl)methanone] | 69% | 69% | 100%

Reference: patent publication US11208412B2 (DAEGU-GYEONGBUK MEDICAL INNOVATION FOUNDATION, priority 2017, dated 2021)
